Source: patent publication US7105529B2, “Substituted oxindole derivatives as protein tyrosine and as protein serine/threonine kinase inhibitors and compositions and methods of treating chemotherapy and radiation therapy side effects” (SmithKline Beecham Corporation, priority 1997, dated 2006)

What was measured:
[1] = system: HDF normal diploid fibroblast cells; assay: FACS assay (cell death), HDF; type: cell-based; conditions: 50% cell death, 72 h
Method: These assays allow determination of both cell death and changes in cell cycle profile in cells following treatment of the compound. The assay is performend as follows: • 1. Cells are incubated in DMEM to which 10% FCS has been added in a humidified incubator at 37° C. and 5% by volume of CO2 in air. The cells are innoculated in 6-well plates at a density of 0.5–5×10^5 cells per well. • 2. The test compound is added in serial dilutions 24–36 h after plating in 0.5% DMSO. The plates are then incubated a further 72 h in the presence of the compound. During this time, cells in control cultures undergo at least three cell divisions. • 3. After incubation, the media is collected and cells are harvested by trypsinization. The cells and media are pooled and pelleted by centrifugation. • 4. The cell pellet is fixed in a final volume of 3 mL of 50% ice cold MeOH and incubated for a minimum of 30 min at −20° C. • 5. The cells are pelleted by centrifugation and resuspended in 0.5 mL PBS containing 1%FCS, […] Propidium Iodide (PI) and 5 mg/mL RNase A and incubated 30 min at 37° C. in the dark. • 6. The samples are analysed by flow cytometry using the relative incorporation of PI as a measure of DNA content of each cell. The % Dead cells is recorded as % of events with less than 2N DNA. […] HDF are normal diploid fibroblast cells. RKO are colon adenocarcinoma cells and MES/SA are ovarian carcinoma cells.

[2] = system: MDA-MB468 (human breast carcinoma cell line); assay: MTT assay, MDA MB468; type: cell-based
Method: Compounds are tested for their ability to inhibit cell proliferation and cell viability. The metabolic conversion of 3-(4,5-dimethylthiazol-2-yl)-2,5-diphenyltetrazolium bromide (MTT, Sigma #M2128) to a reduced form is a commonly used measure of cellular viability. Following is the procedure: Cells are maintained in 75 cm^2 tissue culture flasks until ready for use. The cells are grown and plated for the assay in Dulbecco's modified Eagle's media (DMEM) containing 10% fetal bovine serum. For example, the following cell lines can be used: a) human foreskin fibroblasts (HFF); b) HT29 (human colon carcinoma cell line); c) MDA-MB468 (human breast carcinoma cell line); d) RKO (human colon adenocarcinoma cell line); e) SW620 (human colon carcinoma cell line); f A549 (human lung carcinoma cell line); and g) MIA PACA (human pancreatic carcinoma cell line). Cells are maintained at 37° C. in 10% CO2, 90% humidified air. Cells are plated in 96-well tissue culture plates at the densities listed below. 100 μL of cell suspension is added to each well of the 96-well plate except the top row of the plate which contains no cells and serves as a reference for the spectrophotometer. [table] […] Quantitation of metabolic reduction of MTT in each plate is performed by reading optical density at 570 nm wavelength on a Molecular Devices UVmax microplate reader.

[3] = biological target: CDK1 (Homo sapiens, UniProt P06493); assay: CDK1 substrate phosphorylation assay; type: biochemical
Method: Cyclin dependent protein kinase assays utilized the peptides Biotin-aminohexyl-[…] and Biotin-aminohexyl-[…]-NH2 as phosphoryl group acceptors. CDK1 and CDK2 were both expressed utilizing a baculovirus expression system and were partially purified to comprise 20–80% of total protein, with no detectable competing reactions present. Typically, assays were performed by incubating either enzyme (0.2–10 nM), with and without inhibitor, one of the two peptide substrates (1–10 nM), [γ-^32P]ATP (1–20 nM), and 10–20 mM Mg^2+ for periods of time generally within the range 10–120 min. Reactions were terminated with 0.2–2 volumes of either 20% acetic acid or 50–100 mM EDTA buffered to pH 7 (substrate consumption <20%). The buffer employed in enzyme assays was either 30 mM HEPES 7.4 containing 0.15 M NaCl and 5% DMSO, the buffer 50 mM MOPS 7.0 containing 0.15 M NaCl and 5% DMSO, or the buffer 100 mM HEPES pH 7.5 containing 0.1 mg/mL BSA and 5% DMSO. Inhibitors were diluted in 100% DMSO prior to addition into the assay. […]

Chain of CDK1 (P06493 whole entry): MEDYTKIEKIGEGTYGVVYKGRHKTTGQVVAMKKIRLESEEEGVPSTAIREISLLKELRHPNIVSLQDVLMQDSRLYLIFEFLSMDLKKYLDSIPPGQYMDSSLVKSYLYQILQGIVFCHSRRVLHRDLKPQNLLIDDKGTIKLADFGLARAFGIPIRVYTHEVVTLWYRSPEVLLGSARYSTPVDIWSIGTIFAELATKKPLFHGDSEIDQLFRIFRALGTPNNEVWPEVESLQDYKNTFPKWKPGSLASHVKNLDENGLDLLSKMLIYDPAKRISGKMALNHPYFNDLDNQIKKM
Chain of CDK1 (P14635 whole entry partner): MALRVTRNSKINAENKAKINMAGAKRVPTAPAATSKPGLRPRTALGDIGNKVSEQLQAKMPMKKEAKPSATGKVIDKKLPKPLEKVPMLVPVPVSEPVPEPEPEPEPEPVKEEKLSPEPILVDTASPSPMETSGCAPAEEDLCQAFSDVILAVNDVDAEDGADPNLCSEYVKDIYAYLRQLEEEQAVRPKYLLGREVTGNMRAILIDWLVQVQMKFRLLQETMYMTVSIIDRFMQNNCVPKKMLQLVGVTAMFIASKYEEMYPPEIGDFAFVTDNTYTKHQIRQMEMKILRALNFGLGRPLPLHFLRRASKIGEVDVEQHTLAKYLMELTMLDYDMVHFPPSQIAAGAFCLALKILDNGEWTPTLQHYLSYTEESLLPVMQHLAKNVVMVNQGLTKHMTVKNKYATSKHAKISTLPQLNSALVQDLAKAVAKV

SMILES	IC50 [1] [µM]	IC50 ([2]; Homo sapiens, MDA-MB-468, 72 h) [µM]	IC50 [3] [nM]	IC50 ([2]; 72 h) [µM]
COC(=O)c1ccc2c(c1)/C(=C/Nc1ccc(S(N)(=O)=O)cc1)C(=O)N2 [Example 27]	> 5	1.1 to 5		
NS(=O)(=O)c1ccc(NN=C2C(=O)Nc3ccc(-c4cnco4)cc32)cc1 [Example 36]	> 5		1 to 10	
O=C1Nc2ccc3ncsc3c2C1=CNc1ccc(S(=O)(=O)NCc2ccncc2)cc1 [Example 104, 4-[(7-Oxo-6,7-dihydro-1-thia-3,6-diaza-as-indacen-8-ylidenemethyl)amino]-N-pyridinyl-4-yl-methyl benzenesulfonamide]			11 to 50	1.1 to 5
